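Dose response: 5 concentrations. Exposure: 48 h. Format: 96-well plates. Endpoint: linear interpolation; highest concentration if not reached. The concentration for 50% growth inhibition is given as GI50.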 Active and inactive are the calls of the source. Cut-off read from the data, not from the text of the source: active = GI50 up to about 1.1 µM and inactive = higher.
Columns and labels:
Assay in all cases: NCI-60 cell line screen, 48 h
NCI-H460 = test system: NCI-H460
SF-268 = test system: SF-268
LOX IMVI = test system: LOX IMVI
KM12 = test system: KM12
IGROV-1 = test system: IGROV-1
SK-OV-3 = test system: SK-OV-3
SN12C = test system: SN12C
SNB-75 = test system: SNB-75
SNB-19 = test system: SNB-19
UACC-62 = test system: UACC-62
OVCAR-4 = test system: OVCAR-4
HCC 2998 = test system: HCC 2998
HOP-62 = test system: HOP-62
EKVX = test system: EKVX
MDA-MB-231 = test system: MDA-MB-231
RXF 393 = test system: RXF 393
SF-295 = test system: SF-295
HT-29 = test system: HT-29
HCT-15 = test system: HCT-15
UACC-257 = test system: UACC-257

Row | SMILES | GI50 (NCI-H460) | GI50 (SF-268) | GI50 (LOX IMVI) | GI50 (KM12) | GI50 (IGROV-1) | GI50 (SK-OV-3) | GI50 (SN12C) | GI50 (SNB-75) | GI50 (SNB-19) | GI50 (UACC-62) | GI50 (OVCAR-4) | GI50 (HCC 2998) | GI50 (HOP-62) | GI50 (EKVX) | GI50 (MDA-MB-231) | GI50 (RXF 393) | GI50 (SF-295) | GI50 (HT-29) | GI50 (HCT-15) | GI50 (UACC-257)
1 | CSc1nc(SC)c2c(C)cn(COCCOC(=O)c3ccccc3)c2n1 | 88.5 µM (inactive) | > 100 µM (inactive) | 58.2 µM (inactive) | > 100 µM (inactive) | > 100 µM (inactive) | 24.3 µM (inactive) | > 100 µM (inactive) | 50.2 µM (inactive) | > 100 µM (inactive) | > 100 µM (inactive) | > 100 µM (inactive) | > 100 µM (inactive) | > 100 µM (inactive) | > 100 µM (inactive) | > 100 µM (inactive) | 82.6 µM (inactive) | > 100 µM (inactive) | > 100 µM (inactive) | > 100 µM | 
2 | O=C1c2ccccc2C(=O)N1CC1S(=O)(=O)OCCOS1(=O)=O | > 100 µM (inactive) | > 100 µM (inactive) | > 100 µM (inactive) |  | > 100 µM (inactive) | > 100 µM (inactive) | > 100 µM (inactive) | > 100 µM (inactive) | > 100 µM (inactive) | > 100 µM (inactive) | > 100 µM (inactive) | > 100 µM (inactive) | > 100 µM (inactive) | > 100 µM (inactive) | > 100 µM (inactive) | > 100 µM (inactive) | > 100 µM (inactive) | > 100 µM (inactive) | > 100 µM | > 100 µM (inactive)
3 | CO/N=C(\C)c1cccc(Nc2nc3ccccc3c3occc23)c1 | 11.8 µM (inactive) | 15.4 µM (inactive) | 15.2 µM (inactive) | 7.59 µM (inactive) |  | 14.1 µM (inactive) | 13.3 µM (inactive) | 15.3 µM (inactive) | 15.7 µM (inactive) | < 0.01 µM (active) | 14.8 µM (inactive) | 15.1 µM (inactive) | 15.4 µM (inactive) | 13.6 µM (inactive) | 10.4 µM (inactive) | 12.4 µM (inactive) | 13 µM (inactive) | 5.19 µM (inactive) | 10.4 µM | 0.0419 µM (active)
4 | C#CCOCC12C=CC(O1)C1C(=O)N(C)C(=O)C12 (stereo not drawn) | > 100 µM (inactive) | > 100 µM (inactive) | > 100 µM (inactive) | > 100 µM (inactive) | > 100 µM (inactive) | > 100 µM (inactive) | > 100 µM (inactive) | > 100 µM (inactive) | > 100 µM (inactive) | > 100 µM (inactive) | > 100 µM (inactive) | > 100 µM (inactive) | > 100 µM (inactive) | > 100 µM (inactive) | > 100 µM (inactive) | > 100 µM (inactive) | > 100 µM (inactive) | > 100 µM (inactive) | > 100 µM | 
5 | CCSc1nc(C)nc2c1sc1nc3ccccc3n12 | > 100 µM (inactive) | > 100 µM (inactive) | > 100 µM (inactive) | > 68.1 µM (inactive) | > 100 µM (inactive) | > 100 µM (inactive) | > 100 µM (inactive) | > 94 µM (inactive) | > 100 µM (inactive) | > 100 µM (inactive) | > 78.3 µM (inactive) | > 100 µM (inactive) |  | > 100 µM (inactive) | > 100 µM (inactive) | > 100 µM (inactive) | > 100 µM (inactive) | > 100 µM (inactive) | > 100 µM | > 100 µM (inactive)
6 | Cc1cc2c(c(C(=O)NCCC(=O)O)c1)Oc1c(cc(C)cc1C(=O)NCCC(=O)O)S2 |  | > 100 µM (inactive) | > 100 µM (inactive) | > 100 µM (inactive) | > 100 µM (inactive) | > 100 µM (inactive) | > 100 µM (inactive) | > 100 µM (inactive) | > 100 µM (inactive) | > 100 µM (inactive) | > 100 µM (inactive) | > 100 µM (inactive) | > 100 µM (inactive) | > 100 µM (inactive) | > 100 µM (inactive) | > 100 µM (inactive) | > 100 µM (inactive) | > 100 µM (inactive) | > 100 µM | > 100 µM (inactive)
7 | Oc1cc(-c2cccc(Br)c2)nc2cc3c(cc12)OCO3 | 4.01 µM (inactive) | 4.36 µM (inactive) | 2.75 µM (inactive) | 3 µM (inactive) | 1.8 µM (inactive) | 3.8 µM (inactive) | 5.6 µM (inactive) | 2.72 µM (inactive) | 3.37 µM (inactive) | 1.75 µM (inactive) | > 30.8 µM (inactive) | 15.1 µM (inactive) | 1.99 µM (inactive) |  | 10.1 µM (inactive) | 4.33 µM (inactive) | 1.06 µM (active) | 30.9 µM (inactive) | 4.14 µM | 5.24 µM (inactive)

Source: ChEMBL document CHEMBL1201862, “PubChem BioAssay data set” (2004)
